Reference: patent US8435756B2, “Anionic acid-labile surfactants and methods of use” (Protea Biosciences, Inc., priority 2008, dated 2013)

What was measured:
ovalbumin = biological target: T1, ovalbumin (Gallus gallus, UniProt P01012); test: Protein score from in-solution tryptic digestion of ovalbumin (MALDI-TOF MS/MS, Mascot); conditions: tryptic digestion of 250 μmol ovalbumin; 0.05% AALS-6, other surfactants per manufacturer's protocols; FIG. 3
T1 sequence (P01012 1-386): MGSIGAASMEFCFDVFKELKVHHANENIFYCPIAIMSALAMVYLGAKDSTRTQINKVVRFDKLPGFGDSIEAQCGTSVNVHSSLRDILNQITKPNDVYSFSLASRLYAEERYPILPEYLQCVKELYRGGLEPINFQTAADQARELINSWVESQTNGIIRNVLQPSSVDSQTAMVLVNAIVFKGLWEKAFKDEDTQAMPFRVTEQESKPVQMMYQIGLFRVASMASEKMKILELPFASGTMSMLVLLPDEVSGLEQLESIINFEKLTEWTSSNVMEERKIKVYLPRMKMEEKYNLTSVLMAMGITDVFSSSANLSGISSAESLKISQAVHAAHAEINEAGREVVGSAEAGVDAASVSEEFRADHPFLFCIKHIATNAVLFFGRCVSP
Procedure: The protein scores from in-solution digestion of ovalbumin in buffers containing an embodiment of an anionic acid-labile surfactant (“AALS-6”) and three commercially available acid labile surfactants are illustrated in FIG. 3. A tryptic digestion of […] ovalbumin was performed using 0.05% AALS-6 in digestion buffer. For the other surfactants, digestion was performed according to the manufacturer's protocols. Sample clean-up and MALDI spotting was performed using C18 reversed phase tips. MALDI-TOF MS and MS/MS spectra were acquired using an ABI 4800 mass spectrometer in the reflector mode. Protein identification was accomplished through database searching MS/MS spectra using Mascot search engine.
The ovalbumin control digestion score is 347. In general, the higher protein score indicates an increase in the quality and/or completeness of the digestion because more peptides are available for analysis by the mass spectrometer, and/or the quality of the digested sample delivered to the mass spectrometer is increased. […] The higher protein score of AALS-6 may also be due to its degradation kinetics. For example, once the digestion experiment is complete, the degradation of the surfactant reduces contamination of the signal by detergent molecules and by-products as well as reduces the ion suppression effects commonly seen in mass spectrometry analysis of peptides and proteins.

[1] = Critical micellular concentration; assay type: physicochemical
BSA = BSA (Bos taurus, UniProt P02769); test: Protein score from in-solution tryptic digestion of BSA (MALDI-TOF, peptide mass fingerprinting); conditions: tryptic digestion of 250 pmol BSA, 0.05% AALS-6 in digestion buffer; FIG. 2
Procedure: Protein scores from in-solution digestion of BSA in buffers containing an embodiment of an anionic acid-labile surfactant (“AALS-6”) and three commercially available acid labile surfactants are illustrated in FIG. 2. A tryptic digestion of 250 pmol BSA is performed using 0.05% AALS-6 in digestion buffer. For the other surfactants, digestion is performed according to the manufacturer's protocols. Sample clean-up and MALDI spotting is performed using C18 reversed phase tips. MALDI-TOF spectra are acquired using an ABI 4800 mass spectrometer in the reflector mode. Protein identification is accomplished through peptide mass fingerprinting (PMF) of the acquired MS spectra.
Algorithms that compare mass spectrometric data to database for protein identification compare the experimental tandem mass spectra against theoretical mass spectra from all peptides and proteins present in the databases. As an output for the database correlation analysis, a protein identification score is generated for each potential protein match. Protein matches are required to have a minimum protein score to be considered a potential positive and significant protein identification. The higher the score, the more likely that the protein identification is real and not a result of random events that match the database. […]

Chain of BSA (P02769 25-607): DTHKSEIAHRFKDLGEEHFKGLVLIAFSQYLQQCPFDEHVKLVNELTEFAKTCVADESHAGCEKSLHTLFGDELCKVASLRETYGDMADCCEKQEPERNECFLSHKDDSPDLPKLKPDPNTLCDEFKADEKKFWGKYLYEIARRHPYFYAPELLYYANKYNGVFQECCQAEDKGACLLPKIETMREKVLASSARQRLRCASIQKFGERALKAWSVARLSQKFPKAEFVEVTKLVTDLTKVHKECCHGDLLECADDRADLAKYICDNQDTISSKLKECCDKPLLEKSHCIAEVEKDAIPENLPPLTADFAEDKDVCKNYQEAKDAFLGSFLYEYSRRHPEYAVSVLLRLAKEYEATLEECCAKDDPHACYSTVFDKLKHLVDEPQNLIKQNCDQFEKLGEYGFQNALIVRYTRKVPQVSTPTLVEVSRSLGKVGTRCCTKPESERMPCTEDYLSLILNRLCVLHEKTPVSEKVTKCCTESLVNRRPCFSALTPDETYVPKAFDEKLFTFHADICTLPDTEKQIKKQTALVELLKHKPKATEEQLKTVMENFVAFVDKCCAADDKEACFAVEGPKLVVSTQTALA

| average protein score (ovalbumin) | critical micellular concentration [1] [mM] | average protein score (BSA) | Compound |
| --- | --- | --- | --- |
| 487 | 7.7 | 93 | CCCCCCOC(C)(COS(=O)(=O)[O-])OCCCCCC.[Na+] [AALS-6, sodium 2,2-bis(hexyloxy)propyl sulfate] |
| 341 |  |  | CCCCCCCCCCCC1(C)OCC(COCCCS(=O)(=O)[O-])O1.[Na+] (centres unmarked) [Rapigest] |
| 329 |  |  | CCCCCCCCCCC(OC(=O)NCCCS(=O)(=O)[O-])c1ccco1.[Na+] (centres unmarked) [Proteamax] |
